Measured values from PMC9583322, “Vicinal Diaryl-Substituted Isoxazole and Pyrazole Derivatives with In Vitro Growth Inhibitory and In Vivo Antitumor Activity” (ACS Omega, 2022).

What was measured:
Huh7 = test: SRB cytotoxicity assay; assay type: cell-based, human; details: 72 h treatment
Procedure, shortened: (§1)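 Cells seeded 24 h before 72 h compound exposure, 40 to 2.5 μM (or 2.5 to 0.15 μM for compounds below 2.5 μM). TCA-fixed, stained with sulforhodamine B, absorbance at 515 nm. IC50 relative to DMSO control; fits with R^2 above 0.9 accepted.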

MCF7 = test: SRB cytotoxicity assay; assay type: cell-based, human; details: 72 h treatment
Procedure, shortened: as §1

Mahlavu = test: SRB cytotoxicity assay; assay type: cell-based, human; details: Homo sapiens, Mahlavu, 72 h, 72 h treatment
Procedure, shortened: as §1

MCF10A = test: Real-time cell electronic sensing (RT-CES); assay type: cell-based, human; details: 2.5, 5, 10 μM; immortalized normal breast epithelial cells
Description: (§2) To monitor the real-time cell growth of cells and cytotoxicity of compounds, the xCELLigence system (Roche Applied Sciences) was used. The cells were seeded onto 96-well E-Plate Mahlavu (1500 cell/well), MCF7, Huh7 (2500 cell/well), MDA-MB-231 (5000 cell/well), and MCF10A (6000 cell/well) in 100 μL of the medium/well. To examine the proliferation of cells, the cellular growth was monitored as cell index (CI) every 30 min for 24 h. When the cells were in a log growth phase, treatment with compounds 11 and 85 in 2.5, 5, and 10 μM concentrations was done, the CI values were recorded every 10 min for 24 h for controlling fast drug response and then every 30 min for the remaining 48 h for long-term dose response. After 72 h of incubation, the cellular growth ratios were calculated by CIDrug/CIDMSO.

[1] = test system: Mahlavu, Huh7, MDA-MB-231, and MCF-7; test: Real-time cell electronic sensing (RT-CES); assay type: cell-based, human; details: 2.5, 5, 10 μM; compared to control (DMSO)
Description: as §2

[2] = test system: Mahlavu, Huh7, MCF7, and MDA-MB-231 cells; test: Hoechst nuclear staining for cell death; assay type: cell-based, human; details: IC100 concentrations, 48 h
Description: Mahlavu, Huh7, MCF7, and MDA-MB-231 cells were cultured onto cover slides in six-well plates for 24 h according to their cell growth rate. […] The 1× PBS was used to wash the cells three times, and the cells were fixed with 100% ice-cold methanol. Then, the cells were stained with 1 μg/mL Hoechst (#33258, Sigma). The cells were analyzed under the fluorescence microscope (Nikon Eclipse 50i).

[3] = test system: Mahlavu, Huh7, MCF7, and MDA-MB-231; test: Annexin V flow cytometry; assay type: cell-based, human; details: 5 μM; compared to the control group
Description: Mahlavu, Huh7, MCF7, and MDA-MB-231 were seeded onto six-well plates. After 24 h, the cells were incubated with 5 μM compounds 11 and 85 by keeping DMSO as a negative control. […] PI and Annexin V dyes were added onto cell lysates for 15 min at room temperature in the dark to stain the cells for detecting apoptotic cell populations. The cells were analyzed by flow cytometry.

[4] = test system: 22 cancer cells of the NCI 60 cell line panel; test: NCI-60 single-dose screen, text summary; assay type: cell-based; details: against 22 cancer cells, read-out: growth inhibition (GI) values in the range
Description: (§3) Moreover, in vitro single-dose anticancer screening of 11 and 85 at 10 μM was performed utilizing the stable panel of 60 cell lines comprising 9 different cancer types at the National Cancer Institute (NCI) under the Developmental Therapeutics Program (Table S1).[31]

HOP-92 = test: NCI-60 single-dose screen; assay type: cell-based; details: Homo sapiens, HOP-92, Non-Small Cell Lung Cancer, read-out: % Growth Inhibition (GI%)
Description: as §3

MDA-MB-435 = test: NCI-60 single-dose screen; assay type: cell-based; details: Homo sapiens, MDA-MB-435, Melanoma, read-out: % Growth Inhibition (GI%)
Description: as §3

NCI-H460 = test: NCI-60 single-dose screen; assay type: cell-based; details: Homo sapiens, NCI-H460, Non-Small Cell Lung Cancer, read-out: % Growth Inhibition (GI%)
Description: as §3

RPMI-8226 = test: NCI-60 single-dose screen; assay type: cell-based; details: Homo sapiens, RPMI-8226, Leukemia, read-out: % Growth Inhibition (GI%)
Description: as §3

SN12C = test: NCI-60 single-dose screen; assay type: cell-based; details: Homo sapiens, Renal Cancer, read-out: % Growth Inhibition (GI%)
Description: as §3

Row | Compound | IC50 (Huh7; Homo sapiens, Huh-7, 72 h) | IC50 (MCF7; Homo sapiens, MCF7, 72 h) | IC50 (Mahlavu) | Real-time cell growth response, MCF10A (MCF10A) | Real-time cell growth response, cancer cell lines [1] | Nuclear morphology by Hoechst staining [2] | percentage of apoptotic populations (Annexin V) [3] | inhibition at 10 µM [4] | inhibition at 10 µM (HOP-92) | inhibition at 10 µM (MDA-MB-435) | inhibition at 10 µM (NCI-H460) | inhibition at 10 µM (RPMI-8226) | inhibition at 10 µM (SN12C) | IC50 (Huh7) | IC50 (MCF7)
1 | Cc1ccccc1COc1ccc(-c2noc(C)c2-c2ccc(Cl)cc2)cc1 [compound 11, 4-(4-Chlorophenyl)-5-methyl-3-(4-((2-methylbenzyl)oxy)phenyl)isoxazole] | 1.3 µM | 3.8 µM | 3.2 µM | no difference in the growth | inhibition in the growth | Apoptotic bodies were detectable | increased | 45 to 100% | 27.4% | 100% | 45.3% | 19% | 31.7% | – | –
2 | Cc1ccccc1COc1ccc(-c2ccnn2-c2ccc(Cl)cc2)cc1 [compound 85, 1-(4-Chlorophenyl)-5-(4-((2-methylbenzyl)oxy)phenyl)-1H-pyrazole] | < 1 µM | < 1 µM | 3.7 µM | no difference in the growth | inhibition in the growth | Apoptotic bodies were detectable | increased | 45 to 100% | 25.8% | 99.2% | 41.7% | 22.6% | 32.4% | 0.7 µM | 0.9 µM
